These are literature values, as cited in patent US20060110441A1, “Lyophilized liposome formulations and method” (priority 2004, published 2006).

In brackets after ≈: the same amount, converted by molar mass.

Details in the first data set: not given
Turning to `Nc1nc(Nc2ccc(S(N)(=O)=O)cc2)nn1C(=O)c1c(F)cccc1F` [1-(2′,6′-difluorobenzoyl)-5-amino-3-(4′-aminosulfonylanilino)-1,2,4-triazole], the “water solubility (in words)” value is recorded as “very low water solubility”.
`COc1cc([C@@H]2c3cc4c(cc3[C@@H](O[C@@H]3O[C@@H]5CO[C@@H](C)O[C@H]5[C@H](O)[C@H]3O)[C@H]3COC(=O)[C@H]23)OCO4)cc(OC)c1O` [etopside, reference compound]: the aqueous solubility (commonly the concentration that dissolves in the medium under given conditions) was 30 µg/mL (≈ 51 µM).

Details in another data set: not given
This is another data set of the same source.
For `Nc1nc(Nc2ccc(S(N)(=O)=O)cc2)nn1C(=O)c1c(F)cccc1F` [1-(2′,6′-difluorobenzoyl)-5-amino-3-(4′-aminosulfonylanilino)-1,2,4-triazole], the log partition coefficient (LogP) (usually a log measure of how a compound divides between an organic and an aqueous phase) is reported as “around zero”.
Regarding `C[C@H]1C[C@H]2[C@@H]3CCC4=CC(=O)C=C[C@]4(C)[C@@]3(F)[C@@H](O)C[C@]2(C)[C@@]1(O)C(=O)CO` [betamethasone], the LogP is 1.9.
Turning to `CCC/C=C/C=C/C(=O)O[C@H]1/C(=C/C(=O)OC)C[C@H]2C[C@H]([C@@H](C)O)OC(=O)C[C@H](O)C[C@@H]3C[C@H](OC(C)=O)C(C)(C)[C@](O)(C[C@@H]4C/C(=C/C(=O)OC)C[C@H](/C=C/C(C)(C)[C@]1(O)O2)O4)O3` [bryostatin-1], the log partition coefficient (LogP) is 5.4.
For the molecule `CN(C)CC/C=C1/c2ccccc2Sc2ccc(Cl)cc21` [chlorprothixene], the LogP is listed as 6.1.
In the case of `C[C@]12C[C@H](O)[C@H]3[C@@H](CCC4=CC(=O)CC[C@@]43C)[C@@H]1CC[C@@H]2C(=O)CO` [corticosterone], the log partition coefficient (LogP) is on record as 1.8.
Turning to `CC(=O)O[C@@]12CO[C@@H]1C[C@H](O)[C@@]1(C)C(=O)[C@H](O)C3=C(C)[C@@H](OC(=O)[C@H](O)[C@@H](NC(=O)OC(C)(C)C)c4ccccc4)C[C@@](O)([C@@H](OC(=O)c4ccccc4)[C@H]21)C3(C)C` [docetaxel], the LogP is 6.6.
For the molecule `O=c1[nH]cc(F)c(=O)[nH]1` [fluorouracil], the lipophilicity (LogP) was −0.8.
For the molecule `CC(=O)O[C@H]1C(=O)[C@@]2(C)[C@H]([C@H](OC(=O)c3ccccc3)[C@]3(O)C[C@H](OC(=O)[C@H](O)[C@@H](NC(=O)c4ccccc4)c4ccccc4)C(C)=C1C3(C)C)[C@]1(OC(C)=O)CO[C@@H]1C[C@@H]2O` [paclitaxel], the LogP was 7.4.

The conditions of another data set: hydrated lipid.
Consider `CCCCCCCC/C=C\CCCCCCCC(=O)OC[C@H](COP(=O)(O)OCCN)OC(=O)CCCCCCC/C=C\CCCCCCCC` [DOPE, dioleoyl phosphoethanolamine], for which the “Tm, phase transition temperature” value was −16 °C.
For the molecule `CCCCCCCC/C=C\CCCCCCCC(=O)OC[C@H](COP(=O)(O)OCC(O)CO)OC(=O)CCCCCCC/C=C\CCCCCCCC` (some centres unmarked) [DOPG, dioleoyl phosphatidylglycerol], the “Tm, phase transition temperature” value is −18 °C.
Take `CCCCCCCCCCCCCCCCCC(=O)OC[C@H](COP(=O)([O-])OCC[N+](C)(C)C)OC(=O)CCCCCCCCCCCCCCCCC` [DSPC, distearoyl phosphatidylcholine]: the “Tm, phase transition temperature” value was 55 °C.
In the case of `CCCCCCCC/C=C\CCCCCCCC(=O)O[C@H](COC(=O)CCCCCCCCCCCCCCC)COP(=O)([O-])OCC[N+](C)(C)C` [POPC, palmitoyloleoyl phosphatidylcholine], the “Tm, phase transition temperature” value is −2 °C.
For `CCCCC/C=C\C/C=C\CCCCCCCC(=O)OC[C@H](COP(=O)(O)OCCN)OC(=O)CCCCCCC/C=C\C/C=C\CCCCC` [dilinoleoyl phosphoethanolamine], the “Tm, phase transition temperature” value was −40 °C.
As to `CCCCCCCC/C=C\CCCCCCCC(=O)OC[C@H](COP(=O)(O)O)OC(=O)CCCCCCC/C=C\CCCCCCCC` [dioleoyl PA], the “Tm, phase transition temperature” value was −8 °C.
Regarding `CCCCCCCC/C=C\CCCCCCCC(=O)OC[C@H](COP(=O)(O)OC[C@H](N)C(=O)O)OC(=O)CCCCCCC/C=C\CCCCCCCC` [dioleoyl PS], the “Tm, phase transition temperature” value was −11 °C.
In the case of `CCCCCCCCCCCCCCCCCC(=O)OC[C@H](COP(=O)(O)O)OC(=O)CCCCCCCCCCCCCCCCC` [distereoyl PA], the “Tm, phase transition temperature” value is 75 °C.
For the molecule `CCCCCCCCCCCCCCCCCC(=O)OC[C@H](COP(=O)(O)OCC(O)CO)OC(=O)CCCCCCCCCCCCCCCCC` (some centres unmarked) [distereoyl PG], the “Tm, phase transition temperature” value was 55 °C.
`CCCCCCCCCCCCCCCCCC(=O)OC[C@H](COP(=O)(O)OC[C@H](N)C(=O)O)OC(=O)CCCCCCCCCCCCCCCCC` [distereoyl PS]: the “Tm, phase transition temperature” value is 68 °C.
Consider `CCCCCCCCCCCCCCCCCC(=O)OC[C@H](COP(=O)(O)OCCN)OC(=O)CCCCCCCCCCCCCCCCC` [disteroyl phosphoethanolamine], for which the “Tm, phase transition temperature” value was 74 °C.
On to `CCCCCCCC/C=C\CCCCCCCC(=O)OC[C@H](COP(=O)([O-])OCC[N+](C)(C)C)OC(=O)CCCCCCCCCCCCCCC` [oleoyl palmitoyl PC, oleolyl palmitoyl phosphatidylcholine], for which the “Tm, phase transition temperature” value is −9 °C.
For `CCCCCCCC/C=C\CCCCCCCC(=O)OC[C@H](COP(=O)([O-])OCC[N+](C)(C)C)OC(=O)CCCCCCCCCCCCCCCCC` [oleoyl stearyol PC, oleoyl stearoyl phosphatidylcholine], the “Tm, phase transition temperature” value is 5 to 13 °C.
Regarding `CCCCCCCC/C=C\CCCCCCCC(=O)O[C@H](COC(=O)CCCCCCCCCCCCCCCCC)COP(=O)([O-])OCC[N+](C)(C)C` [stearyol oleoyl PC, stearyoyl oleoyl phosphatidylcholine], the “Tm, phase transition temperature” value is 8 to 13 °C.
Regarding palmitoyl docosahexaenoyl PC, the “Tm, phase transition temperature” value was −27 °C.

The data set is the same for the next values; noted with them: hydrated lipid; listed as palmitoyl oleoyl PC.
As to `CCCCCCCC/C=C\CCCCCCCC(=O)O[C@H](COC(=O)CCCCCCCCCCCCCCC)COP(=O)([O-])OCC[N+](C)(C)C` [POPC, palmitoyloleoyl phosphatidylcholine], the “Tm, phase transition temperature” value was −5 to 3 °C.
